# Data published in ChEMBL document CHEMBL5154753, “Discovery and Structural Optimization of Toddacoumalone Derivatives as Novel PDE4 Inhibitors for the Topical Treatment of Psoriasis” (J Med Chem, 2022).
# pIC50: −log10 of the molar value. The source made the active and inactive calls. The calls are words filed in the database; no cut-off is given here.
# What was measured:
# [1] = Cmax in ICR mouse at 30 mg/kg, po measured upto 24 hrs by LC-MS/MS analysis; assay type: ADME, organism-based; parameters: time < 24 hrs, dose 30 mg/kg, route po; conditions: in vivo
# [2] = Clearance in ICR mouse at 10 mg/kg, iv measured upto 24 hrs by LC-MS/MS analysis; assay type: ADME, organism-based; conditions: in vivo
# Mus musculus [3] = assay: Anti-psoriatic activity in IMQ-induced BALB/c psoriasis mouse model assessed as reduction in thickness score at 10 mg/kg, po for 7 days; assay type: functional, organism-based; conditions: time 7.0 day
# Mus musculus [4] = organism: Mus musculus; assay: Anti-psoriatic activity in IMQ-induced BALB/c psoriasis mouse model assessed as change in skin thickness at 62.5 mg as 4% ointment, TOP daily for 7 days by hematoxylin and eosin staining based confocal laser scanning microscopy; assay type: functional, organism-based; conditions: time 7.0 day
# [5] = Toxicity in IMQ-induced BALB/c psoriasis mouse model assessed as body weight loss at 10 mg/kg, po for 7 days; assay type: organism-based; conditions: in vivo, 168 h, time 7 day
# Mus musculus [6] = organism: Mus musculus; assay: Anti-psoriatic activity in IMQ-induced BALB/c psoriasis mouse model assessed as reduction in erythema score at 62.5 mg as 2% ointment, TOP daily and measured upto 7 days; assay type: functional, organism-based; conditions: time <= 7.0 day, DDE = dose-dependent effect
# [7] = Half life in ICR mouse at 10 mg/kg, iv measured upto 24 hrs by LC-MS/MS analysis; assay type: ADME, organism-based; conditions: in vivo
# RAW264.7 [8] = assay: Cytotoxicity against mouse RAW264.7 cells assessed as cell viability incubated for 48 hrs; assay type: toxicity, cell-based; conditions: raw264.7, 48 h
# [9] = biological target: High affinity cGMP-specific 3',5'-cyclic phosphodiesterase 9A (Homo sapiens, UniProt O76083); assay: Inhibition of PDE9A2 (181 to 506 residues) (unknown origin) expressed in Escherichia coli BL21 using [3H-GMP] or [3H-AMP] as substrate incubated for 15 mins by liquid scintillation counting method
# [10] = Toxicity in BALB/c mouse assessed as skin lesions at 62.5 mg as 4% ointment, TOP daily and measured upto 7 days; conditions: in vivo, topical_or_ocular, 168 h, time < 7 day
# [11] = AUC (0 to t) in ICR mouse at 10 mg/kg, iv measured upto 24 hrs by LC-MS/MS analysis; assay type: ADME, organism-based; parameters: dose 10 mg/kg, time < 24 hrs, route iv; conditions: in vivo
# Mus musculus [12] = organism: Mus musculus; assay: Anti-psoriatic activity in IMQ-induced BALB/c psoriasis mouse model assessed as reduction in dermal cell proliferation at 62.5 mg as 2% ointment, TOP daily for 7 days by Ki67+ expression based immunohistochemistry analysis; assay type: functional, organism-based; conditions: time 7.0 day
# [13] = Toxicity in IMQ-induced BALB/c psoriasis mouse model assessed as body weight loss at 62.5 mg as 4% ointment, TOP daily and measured upto 7 days; conditions: in vivo, topical_or_ocular, 168 h, time < 7 day
# Mus musculus [14] = assay: Anti-psoriatic activity in IMQ-induced BALB/c psoriasis mouse model assessed as reduction in erythema score at 10 mg/kg, po for 7 days; assay type: functional, organism-based; conditions: time 7.0 day
# [15] = AUC (0 to t) in ICR mouse at 30 mg/kg, po measured upto 24 hrs by LC-MS/MS analysis; assay type: ADME, organism-based; parameters: time < 24 hrs, dose 30 mg/kg, route po; conditions: in vivo
# [16] = Toxicity in BALB/c mouse assessed as body weight loss at 62.5 mg as 4% ointment, TOP daily and measured upto 7 days; conditions: in vivo, topical_or_ocular, 168 h, time < 7 day
# [17] = C0 in ICR mouse at 10 mg/kg, iv measured upto 24 hrs by LC-MS/MS analysis; assay type: ADME, organism-based; conditions: in vivo
# RAW264.7 [18] = assay: Anti-inflammatory activity against mouse RAW264.7 cells assessed as decrease in LPS-induced TNF-alpha mRNA levels incubated for 4 hrs followed LPS-stimulation for 24 hrs by SYBR green staining based qRT-PCR analysis; assay type: functional, cell-based; conditions: time 28.0 hrs, DDE = dose-dependent effect
# Mus musculus [19] = organism: Mus musculus; assay: Anti-psoriatic activity in IMQ-induced BALB/c psoriasis mouse model assessed as reduction in epidermal cell proliferation at 62.5 mg as 4% ointment, TOP daily for 7 days by Ki67+ expression based immunohistochemistry analysis; assay type: functional, organism-based; conditions: time 7.0 day
# [20] = Half life in ICR mouse at 30 mg/kg, po measured upto 24 hrs by LC-MS/MS analysis; assay type: ADME, organism-based; conditions: in vivo
# RAW264.7 [21] = assay: Anti-inflammatory activity against mouse RAW264.7 cells assessed as decrease in LPS-induced IL-6 mRNA levels incubated for 4 hrs followed LPS-stimulation for 24 hrs by SYBR green staining based qRT-PCR analysis; assay type: functional, cell-based; conditions: time 28.0 hrs, DDE = dose-dependent effect
# [22] = biological target: Voltage-gated inwardly rectifying potassium channel KCNH2 (Homo sapiens, UniProt Q12809); assay: Inhibition of hERG by Q patch automated patch-clamp method; assay type: toxicity
# [23] = Tmax in ICR mouse at 30 mg/kg, po measured upto 24 hrs by LC-MS/MS analysis; assay type: ADME, organism-based; conditions: in vivo
# [24] = Volume of distribution at steady state in ICR mouse at 10 mg/kg, iv measured upto 24 hrs by LC-MS/MS analysis; assay type: ADME, organism-based; conditions: in vivo, read-out: Vdss
# Mus musculus [25] = organism: Mus musculus; assay: Anti-psoriatic activity in IMQ-induced BALB/c psoriasis mouse model assessed as reduction IMQ- induced immune response by measuring spleen weight loss at 62.5 mg as 4% ointment, TOP daily and measured upto 7 days; assay type: functional, organism-based; conditions: time <= 7.0 day
# Chain of Voltage-gated inwardly rectifying potassium channel KCNH2 (Q12809 whole entry): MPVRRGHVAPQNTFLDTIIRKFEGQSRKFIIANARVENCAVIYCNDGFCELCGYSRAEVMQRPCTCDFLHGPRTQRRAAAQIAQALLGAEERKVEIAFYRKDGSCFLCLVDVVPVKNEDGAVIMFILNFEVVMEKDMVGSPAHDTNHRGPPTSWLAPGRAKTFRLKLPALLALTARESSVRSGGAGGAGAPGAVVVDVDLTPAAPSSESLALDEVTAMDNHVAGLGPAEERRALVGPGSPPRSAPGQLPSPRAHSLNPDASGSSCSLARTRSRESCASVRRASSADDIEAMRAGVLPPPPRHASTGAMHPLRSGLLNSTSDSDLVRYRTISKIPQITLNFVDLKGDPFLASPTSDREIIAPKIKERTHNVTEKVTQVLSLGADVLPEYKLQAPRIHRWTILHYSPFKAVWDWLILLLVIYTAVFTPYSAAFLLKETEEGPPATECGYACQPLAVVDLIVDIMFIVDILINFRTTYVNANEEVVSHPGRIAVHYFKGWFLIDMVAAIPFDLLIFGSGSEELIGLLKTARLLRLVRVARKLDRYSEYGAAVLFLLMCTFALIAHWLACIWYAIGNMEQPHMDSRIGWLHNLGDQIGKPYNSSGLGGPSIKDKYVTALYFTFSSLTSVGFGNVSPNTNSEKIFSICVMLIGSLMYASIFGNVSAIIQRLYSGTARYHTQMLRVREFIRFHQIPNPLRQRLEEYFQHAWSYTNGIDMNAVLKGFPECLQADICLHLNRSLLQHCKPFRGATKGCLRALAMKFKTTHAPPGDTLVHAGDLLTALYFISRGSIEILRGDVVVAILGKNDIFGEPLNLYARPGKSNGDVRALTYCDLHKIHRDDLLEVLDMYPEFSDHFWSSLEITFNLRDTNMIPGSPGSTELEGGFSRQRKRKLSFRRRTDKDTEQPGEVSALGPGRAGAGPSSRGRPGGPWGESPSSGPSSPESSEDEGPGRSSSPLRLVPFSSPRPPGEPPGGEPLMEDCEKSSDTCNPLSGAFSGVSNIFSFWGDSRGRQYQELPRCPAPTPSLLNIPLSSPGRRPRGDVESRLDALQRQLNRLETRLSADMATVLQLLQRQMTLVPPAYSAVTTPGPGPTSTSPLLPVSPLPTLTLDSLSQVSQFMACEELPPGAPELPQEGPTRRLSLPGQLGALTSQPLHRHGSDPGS
# Chain of High affinity cGMP-specific 3',5'-cyclic phosphodiesterase 9A (O76083 whole entry, the tested form may be a part): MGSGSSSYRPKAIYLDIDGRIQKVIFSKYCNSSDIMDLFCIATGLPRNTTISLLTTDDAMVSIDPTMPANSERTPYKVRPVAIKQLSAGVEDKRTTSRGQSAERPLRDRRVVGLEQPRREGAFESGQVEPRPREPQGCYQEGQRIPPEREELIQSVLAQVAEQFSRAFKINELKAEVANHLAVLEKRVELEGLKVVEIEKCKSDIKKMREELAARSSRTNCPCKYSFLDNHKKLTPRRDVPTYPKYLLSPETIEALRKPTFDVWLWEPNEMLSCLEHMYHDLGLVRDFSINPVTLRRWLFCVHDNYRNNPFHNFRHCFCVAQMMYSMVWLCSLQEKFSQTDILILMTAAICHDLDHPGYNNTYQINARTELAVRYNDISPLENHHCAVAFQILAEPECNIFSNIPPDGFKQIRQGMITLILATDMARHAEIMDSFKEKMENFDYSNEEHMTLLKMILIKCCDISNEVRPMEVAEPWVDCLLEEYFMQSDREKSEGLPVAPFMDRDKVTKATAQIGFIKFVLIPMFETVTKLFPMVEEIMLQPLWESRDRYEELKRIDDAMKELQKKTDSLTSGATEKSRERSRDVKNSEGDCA
smiles,measurement,setting,value
CCn1c(=O)c2c(c3ccc(C)nc31)O[C@@](C)(CCO)C[C@H]2C=C(C)C,Cmax,[1],391 ng/mL
same,clearance,[2],63.8 mL/min/kg
same,Activity,Mus musculus [3],Active
same,Activity,Mus musculus [4],Active
same,Activity,[5],Non-Toxic
same,Activity,Mus musculus [6],Dde
same,half-life,[7],0.92 h
same,Activity,RAW264.7 [8],Non-Toxic
same,pIC50,[9],< 5.00
same,Activity,[10],Non-Toxic
same,AUC(0-t) at 24 h,[11],2610 ng·h/mL
same,Activity,Mus musculus [12],Active
same,Activity,[13],Non-Toxic
same,Activity,Mus musculus [14],Active
same,AUC(0-t) at 24 h,[15],1130 ng·h/mL
same,Activity,[16],Non-Toxic
same,C0 at 24 h,[17],20600 ng/mL
same,Activity,RAW264.7 [18],Dde
same,Activity,Mus musculus [19],Active
same,half-life,[20],1.81 h
same,Activity,RAW264.7 [21],Dde
same,pIC50,[22],< 4.30
same,Tmax,[23],1 h
same,Vd,[24],0.77 L/kg
same,Activity,Mus musculus [25],Active
